The results in this text go back to paper PMC11726359, “Discovery of Rezatapopt (PC14586), a First-in-Class, Small-Molecule Reactivator of p53 Y220C Mutant in Development” (ACS Medicinal Chemistry Letters, 2024).

The test system of data set [1] is NUGC-3, gastric cancer cell line with a TP53 Y220C mutation. Put plainly: MTT cell proliferation assay. It is filed as cell-based, human. As to conditions: for IC50: Homo sapiens, NUGC-3, 120 h, NUGC-3 cells, five days incubation. How it is done: We also evaluated the effects of these compounds on the growth and viability of four cancer cell lines in vitro. Two of the cell lines (NUGC-3, gastric cancer cell line with a TP53 Y220C mutation and T3M-4, pancreatic carcinoma cell line) have the TP53 Y220C mutation leading to the p53 Y220C mutant protein; SJSA-1 is a p53 WT cell line, and NUGC-3-KO is an isogenic p53 knockout cell line.[11] After incubating the cells with the compounds for five days, cell viability was measured using the 3-(4,5-dimethylthiazol-2-yl)-2,5-diphenyltetrazolium bromide (MTT) assay.
C = (Ac − B a)/(Dc − B d),
Prism (GraphPad) or XLfit software (IDBS).
Cells were seeded at an appropriate
Compounds were tested at eight concentrations with 2-fold serial dilutions. […]
with a reference wavelength of 650 nm. […]
untreated cells (control). […]

In data set [2] the target is T1, recombinant His-tag Y220C p53 DNA binding domain (Homo sapiens, UniProt P04637, Y220C).
T1 construct: Y220C p53 DBD protein (amino acids #94-312); made in house
Put plainly: TR-FRET DNA binding assay (SC150). It is filed as biochemical. The text has this:
At the outset of our hit generation campaign, several small molecules targeting the p53 Y220C mutant protein were identified. Two notable examples, supported by crystallographic data, were the compounds from the carbazole series[6] (PhiKan83) and the iodophenol series[7] (PK1596) (Figure 1). To assess the in vitro potency of the p53 Y220C reactivators, a time-resolved fluorescence resonance energy transfer (FRET) assay was developed. In this assay, recombinant His-tag Y220C p53 DNA binding domain binds to biotin-labeled consensus DNA, and the FRET signal is measured between the allophycocyanin-conjugated anti-His-tag antibody and europium-conjugated streptavidin. The […] concentration required to increase DNA binding by 1.5-fold (SC150) could then be determined. The carbazole compound (PhiKan83) enhanced DNA binding with an SC150 of 37.2 μM. […]
Time-Resolved Fluorescence Resonance Energy Transfer (TR-FRET) Assay
DNA binding activity was measured by the TR-FRET assay. In this assay, the recombinant His6-tag Y220C p53 DNA binding domain (DBD) protein binds to biotin labeled consensus DNA. The binding of recombinant His6-tag Y220C p53 DBD protein and biotin-labeled consensus DNA is detected by the fluorescence resonance energy transfer (FRET) between allophycocyanin (APC) conjugated anti-His6 tag antibody and Europium-(Eu) conjugated Streptavidin. Test compounds, at 2 mM stock in DMSO, were diluted t hr e e-f ol d in serial dilutions in DMSO and 1.2 µL per well were added into 384-well polypropylene black plates (NUNC). Subsequently, 30 µL per well of 181 nM recombinant His6-tag Y220C p53 DBD protein (amino acids #94-312) and 9.1 nM of APC conjugated anti-His6 tag antibody (Columbia Biosciences) in ice-cold Assay Buffer 1 (50 mM Tris-HCl, pH 7.4, 75 mM KCl, 0.75 mM DTT and 0.2 mg/mL bovine serum albumin [BSA]) was added. As a background control, 30 µL of Assay Buffer 1 containing 9.1 nM of APC anti-His6 antibody (no Y220C protein) was also added into a second set of serial diluted compound plates. The samples were centrifuged at 1,200 rpm (Eppendorf 5810R plate centrifuge) for 1 minute and incubated at room temperature (20 °C) for 15 min. The samples were then incubated at 27 °C in a water bath for 48 min. Afterwards, 5 µL per well of 145 nM biotin labeled oligonucleotide from a consensus DNA p53 response element (a DNA duplex with 5’ to 3’sequence of […]
and biotin attached to the 3’ end of the complementary DNA) and 8.8 nM Eu-conjugated streptavidin (Columbia Biosciences) in Assay Buffer 2 (50 mM Tris-HCl, pH 7.4, 75 mM KCl and 0.2 mg/mL BSA) were added. The samples were centrifuged at 1,200 rpm for 1 min and incubated at room temperature (20 °C) for 20 min. Assay signals were monitored by reading excitation at 340 nm, and emission fluorescence at 615 and 665 nm, on an Envision reader (Perkin El mer). Normalized TR -FRET assay signal (Rn) was calculated by the formula:
Rn = [(A − B a − C × (D − Bd))/(D − Bd)] × (Dc − B d),
C = (Ac − B a)/(Dc − B d), […]
Background: Time-resolved FRET reads energy transfer from a long-lived donor to a nearby acceptor.

Data set [3] is described as follows: Pharmacokinetic study in mice. To be noted: Table 2, PO, 50 mg/kg.
Protocol: Pharmacokinetic parameters were evaluated in female CD-1 mice. Animals received an oral gavage dose of 50 mg/kg of the test article. The test article was formulated in a solution containing 2% hydroxypropyl
cellulose and 0.5% Tween 80 in water. Blood samples were collected at 0.5, 1, 2, 4, 7, and 24 h post dose.
Blood samples were processed into plasma, and the concentrations of the test article were determined by
LC-MS/MS. P harmacokinetic parameters were calculated using the Phoenix WinNonlin 6.3 program,
employing a non- compartmental model 200.
The mark [4] stands for this setting: Table 2, concentration required to increase DNA binding by 1.5-fold.
The mark [5] stands for this setting: Table 1, concentration required to increase DNA binding by 1.5-fold.
Setting [6] is: Table 3, concentration required to increase DNA binding by 1.5-fold.
[7] abbreviates: Figure 1, enhancement of DNA binding.

Molecules are shown by their SMILES. Where only a bound is given, the exact number is not on record here.

As a reminder, the IC50 is the concentration that inhibits the measured activity by half. A low value points to greater potency. Regarding `COc1cc(S(C)(=O)=O)ccc1NCC#Cc1cc2c(N[C@@H]3CCN(C)C[C@H]3F)cccc2n1CC(F)(F)F` (racemic) [Compound 19, Rac-N-[(3R,4R)-3-fluoro-1-methyl-4-piperidyl]-2-[3-(2-methoxy-4-methylsulfonyl-anilino)prop-1-ynyl]-1-(2,2,2-trifluoroethyl)indol-4-amine], in data set [1] (Table 2), the midpoint of inhibition, the IC50, lay at 3 µM. Also, the SC150 in data set [2] (setting [4]) came to 0.02 µM.
Molecule `COc1cc(S(C)(=O)=O)ccc1NCC#Cc1cc2c(N[C@@H]3CCN(C)C[C@@H]3F)cccc2n1CC(F)(F)F` (racemic) [Compound 20, Rac-N-[(3S,4R)-3-fluoro-1-methyl-4-piperidyl]-2-[3-(2-methoxy-4-methylsulfonyl-anilino)prop-1-ynyl]-1-(2,2,2-trifluoroethyl)indol-4-amine] yielded a concentration for half-maximal inhibition (IC50) in data set [1] (Table 2) of 0.7 µM. The “fold higher potency in the MTT assay” value in data set [1] (among the two pairs of stereoisomers from fluorine substitution of compound 13) is on record as “over 3 fold”. The SC150 in data set [2] (setting [4]) is 0.009 µM.
For `CCn1c(C#CCNc2ccccc2)cc2cc(C(=O)NC3CCN(C)CC3)ccc21` [Compound 2, 2-(3-anilinoprop-1-ynyl)-1-ethyl-N-(1-methyl-4-piperidyl)indole-5-carboxamide], the SC150 in data set [2] (setting [5]) is above 150 µM.
The same measure, in the same setting: as for `CCn1c(C#CCNc2ccccc2)cc2cc(CNC3CCOCC3)ccc21` [Compound 3, N-((1-ethyl-2-(3-(phenylamino)prop-1-yn-1-yl)-1H-indol-5-yl)methyl)tetrahydro-2H-pyran-4-amine], the figure is 26.5 µM; as for `CCn1c(C#CCNc2ccc(C)nc2)cc2cc(CNC3CCOCC3)ccc21` [Compound 4, N-(3-(1-ethyl-5-(((tetrahydro-2H-pyran-4-yl)amino)methyl)-1H-indol-2-yl)prop-2-yn-1-yl)-6-methylpyridin-3-amine], 6.3 µM; as for `CCn1c(C#CCNc2ccc(C(C)(C)C)nc2)cc2cc(CNC)ccc21` [Compound 5, 6-(tert-butyl)-3-(3-{1-ethyl-5-[(methylamino)methyl]-2-indolyl}-2-propynylamino)pyridine], 6.4 µM.
The same measure, in the same setting: to `CCn1c(C#CCNc2ccc(C(C)(C)C#N)nc2)cc2cc(CNC3CCOCC3)ccc21` [Compound 6, 2-(5-((3-(1-ethyl-5-(((tetrahydro-2H-pyran-4-yl)amino)methyl)-1H-indol-2-yl)prop-2-yn-1-yl)amino)pyridin-2-yl)-2-methylpropanenitrile] belongs 1.3 µM; to `CC(C)(C#N)c1ccc(NCC#Cc2cc3cc(CNC4CCOCC4)ccc3n2CC(F)(F)F)cn1` [Compound 7, 2-methyl-2-(5-((3-(5-(((tetrahydro-2H-pyran-4-yl)amino)methyl)-1-(2,2,2-trifluoroethyl)-1H-indol-2-yl)prop-2-yn-1-yl)amino)pyridin-2-yl)propanenitrile], 0.48 µM.
As for `CC(C)(C#N)c1ccc(NCC#Cc2cc3c(CNC4CCOCC4)cccc3n2CC(F)(F)F)cn1` [Compound 8, 2-methyl-2-(5-((3-(4-(((tetrahydro-2H-pyran-4-yl)amino)methyl)-1-(2,2,2-trifluoroethyl)-1H-indol-2-yl)prop-2-yn-1-yl)amino)pyridin-2-yl)propanenitrile], the SC150 in data set [2] (setting [5]) is 1.300 µM.
The same measure, in the same setting: as for `CC(C)(C#N)c1ccc(NCC#Cc2cc3c(NC4CCOCC4)cccc3n2CC(F)(F)F)cn1` [Compound 9, 2-methyl-2-(5-((3-(4-((tetrahydro-2H-pyran-4-yl)amino)-1-(2,2,2-trifluoroethyl)-1H-indol-2-yl)prop-2-yn-1-yl)amino)pyridin-2-yl)propanenitrile], the figure is 0.105 µM; as for `CN1CCC(Nc2cccc3c2cc(C#CCNc2ccc(C(C)(C)C#N)nc2)n3CC(F)(F)F)CC1` [Compound 10, 2-methyl-2-(5-((3-(4-((1-methylpiperidin-4-yl)amino)-1-(2,2,2-trifluoroethyl)-1H-indol-2-yl)prop-2-yn-1-yl)amino)pyridin-2-yl)propanenitrile], 0.054 µM; as for `CN1CCC(Nc2cccc3c2cc(C#CCNc2ccc(S(C)(=O)=O)cc2)n3CC(F)(F)F)CC1` [Compound 11, N-(1-methylpiperidin-4-yl)-2-(3-((4-(methylsulfonyl)phenyl)amino)prop-1-yn-1-yl)-1-(2,2,2-trifluoroethyl)-1H-indol-4-amine], 0.027 µM.
On the same count and under the same terms, to `Cc1cc(S(C)(=O)=O)ccc1NCC#Cc1cc2c(NC3CCN(C)CC3)cccc2n1CC(F)(F)F` [Compound 12, 2-[3-(2-methyl-4-methylsulfonyl-anilino)prop-1-ynyl]-N-(1-methyl-4-piperidyl)-1-(2,2,2-trifluoroethyl)indol-4-amine] belongs 0.030 µM; to `CN1CCC(Nc2cccc3c2cc(C#CCNc2ccc(S(C)(=O)=O)cc2OC(F)(F)F)n3CC(F)(F)F)CC1` [Compound 14, N-(1-methyl-4-piperidyl)-2-[3-[4-methylsulfonyl-2-(trifluoromethoxy)anilino]prop-1-ynyl]-1-(2,2,2-trifluoroethyl)indol-4-amine], 0.030 µM.
As for `COc1cc(S(C)(=O)=O)ccc1NCC#Cc1cc2c(N[C@H]3CCN(C)C[C@H]3F)cccc2n1CC(F)(F)F` [Compound 21, N-[(3R,4S)-3-fluoro-1-methyl-4-piperidyl]-2-[3-(2-methoxy-4-methylsulfonyl-anilino)prop-1-ynyl]-1-(2,2,2-trifluoroethyl)indol-4-amine], half-maximal inhibition in data set [1] (Table 2) (IC50) required 2.3 µM. The SC150 in data set [2] (setting [4]) stood at 0.02 µM. Moreover, in data set [3], the “Mouse PK Exposure AUC0-last” value stood at 23233 ng·h/mL and the “Mouse PK Exposure Cmax” value was determined as 2353 ng/mL.
For `COc1cc(C(=O)N2CCN(C)CC2)ccc1NCC#Cc1cc2c(N[C@@H]3CCN(C)C[C@@H]3F)cccc2n1CC(F)(F)F` [Compound 30, [4-[3-[4-[[(3S,4R)-3-fluoro-1-methyl-4-piperidyl]amino]-1-(2,2,2-trifluoroethyl)indol-2-yl]prop-2-ynyl-amino]-3-methoxy-phenyl]-(4-methylpiperazin-1-yl)methanone], in data set [1] (Table 3), 0.791 µM corresponded to half-maximal inhibition (IC50). In addition, in data set [2] (setting [6]), the SC150 turned out to be 0.009 µM.
For `COc1cc(C(=O)NC2CCN(C)CC2)ccc1NCC#Cc1cc2c(N[C@@H]3CCN(C)C[C@@H]3F)cccc2n1CC(F)(F)F` [Compound 31, 4-[3-[4-[[(3S,4R)-3-fluoro-1-methyl-4-piperidyl]amino]-1-(2,2,2-trifluoroethyl)indol-2-yl]prop-2-ynyl-amino]-3-methoxy-N-(1-methyl-4-piperidyl)benzamide], in that order: 1.16 µM and 0.005 µM.
With `CCN(CC)C1CCN(Cc2cc(C#CCNc3ccccc3)cc(I)c2O)CC1` [PK1596, reference compound], the SC150 in data set [2] (setting [7]) is 1.6 µM.
Still for that read-out and setting: as for `CCn1c2ccccc2c2cc(CNC)ccc21` [PhiKan83, reference compound], the figure is 37.2 µM.
